US7022315B2, “Administration of a thiol-based chemoprotectant compound” (Oregon Health & Science University, priority 2000, dated 2006)
≈ marks a conversion by molar mass, not a printed value. Where two headings read alike, the source gives them in different places. Marks after values point to notes of the source that are not given here.

What was measured:
[1] = tested on: LX-1 SCLC cells; test: cells; details: for EC50: average ± pooled sd of two experiments
Protocol: Cytotoxicity was assessed in cultured LX-1 SCLC cells, 1×10^4 cells per well in 96 well plates, using the WST colorometric assay. […] Chemoprotectant was added at the indicated concentration of N-acetylcysteine shown in FIG. 3A or D-methionine shown in FIG. 3B either alone (n) or immediately following chemotherapy. Data are expressed as the percentage of live cells compared to untreated control samples (without chemotherapy) and each point represents the mean±standard deviation of 4 wells.
The dose/response for rescue from chemotherapy cytotoxicity was evaluated for four different small molecular weight sulfur containing chemoprotectants.
Chemotherapy agents were fixed at the 90% lethal dose for each agent. Each EC50 measurement comprised 6 concentrations with 4 wells per concentration, and each dose response was performed twice for each protectant. EC50 concentrations, in μg/ml are reported as the average±pooled standard deviation for two independent experiments.

[2] = tested on: B.5 LX-1 cells; test: cells
Protocol: FIGS. 4A and 4B show cytoenhancement and chemoprotection. […] Cytotoxicity was assessed in cultured LX-1 SCLC cells, 1×10^4 cells per well in 96 well plates, using the WST colorometric assay. BSO cytoenhancement consisted of preincubation at 100 μM BSO for 18 hours. The chemoprotective agent was added immediately after chemotherapy. The experimental conditions were dose/responses for chemotherapy (carboplatin or etoposide phosphate) alone (m), BSO cytoenhancement ( ? ), N-acetylcysteine rescue, (1000 μg/ml N-acetylcysteine, n), or BSO cytoenhancement and N-acetylcysteine rescue (u). Data are expressed as the percentage of live cells compared to untreated control samples without chemotherapy and each point represents the mean±standard deviation of 4 wells.
The effects of BSO cytoenhancement and thiol chemoprotection on the dose/response relationships for cytotoxicity of the alkylating chemotherapeutics were evaluated in the B.5 LX-1 cells. BSO cytoenhancement consisted of preincubation with 100 μM BSO for about 18–24 hours prior to addition of chemotherapy, and rescue consisted of 1000–2000 μg/ml of thiol chemoprotectant added immediately after chemotherapy.
Cytoenhancement and chemoprotection against non-alkylating chemotherapeutic agents was also evaluated.
Half-maximal cytotoxic concentrations (EC50) are expressed as μg/ml. Each EC50 measurement comprised 6 concentrations with 4 wells per concentration, and each dose response was performed in triplicate for each chemotherapeutic agent. Data are reported as the mean±pooled standard deviation for three independent experiments. P values are shown for the reduction in EC50 by BSO treatment (*=P<0.05, **=P<0.01, ***=P<0.001).

[3] = tested on: GM294 human fibroblasts; test: Cytoenhancement and chemoprotection in fibroblasts, WST assay; type: cell-based; details: independent of BSO treatment; 1000 μg/ml
Protocol: Cytotoxicity was assessed in GM294 human fibroblasts, 1×10^4 cells per well in 96 well plates, using the WST colorometric assay. […] Data are expressed as the percentage of live cells compared to control samples (without chemotherapy) and each point represents the mean±s.d. of 4 wells.

[4] = tested on: Caspase-2 activity in B.5 LX-1 cells; test: Caspase-2 enzymatic activity (apoptosis); type: cell-based
Protocol: FIGS. 7A and 7B show the effect of cytoenhancement and chemoprotection on apoptosis. […] Apoptosis was assessed in cultured LX-1 SCLC cells pretreated for 18 hours with or without 100 μM BSO. The experimental conditions were no addition (open bars), melphalan (10 μg/ml, striped bars) or melphalan (10 μg/ml) plus N-acetylcysteine (1000 μg/ml) (cross hatched bars) for 20 h prior to harvest. Caspase-2 activity is expressed as percentage activity in untreated control samples (mean±standard deviation, n=3). TUNEL staining is expressed as the percentage of cells showing positive staining.
Apoptosis was evaluated by measuring Caspase-2 enzymatic activity and by in situ TUNEL staining. […] The increase in caspase activity was variable between experiments and ranged from 50–100% at 7–8 h to 250–600% at 20–24 h after treatment with melphalan. […] In the experiment shown in FIG. 7B, TUNEL staining after melphalan treatment was positive in 29 of 3643 cells, compared to 7 of 4395 cells in the untreated control, and BSO treatment prior to melphalan increased the positive staining to 800 of 1699 cells. […] In both assays, activity was maximal with low doses of melphalan, or with a 1 hour pulse treatment with the doses used in the cytotoxicity assays.
Samples of the cells used in the caspase and TUNEL assays were also evaluated for membrane permeability by trypan blue exclusion.

[5] = tested on: rats; test: Protection against chemotherapy-induced myelosuppression, nadir blood counts; type: in vivo, rat; details: for White Cell Nadir: mean ± SE
Protocol: FIGS. 10A–10D show the results of tests on chemoprotection for chemotherapy-induced myelosuppression. Rats received tri-drug chemotherapy (Carboplatin 200 mg/m2, etoposide phosphate 100 mg/m2, melphalan 10 mg/m2), with (triangles, squares) or without (circles) chemoprotection. Blood counts were determined prior to chemotherapy, at the blood nadir (6 days), and in the recovery phase (9 days after treatment). Chemoprotection was with NAC (1200 mg/kg) administered via aortic infusion 30 min prior to chemotherapy (triangles) or NAC prior to chemotherapy and STS (8 g/m2) immediately after chemotherapy (squares). In FIG. 10B and FIG. 10D animals received BSO (10 mg/kg i.p.×3 d) prior to treatment with chemotherapy. […] Significant difference from the no protectant groups were determined by Wilcoxon/Kruskal-Walliis rank sums tests (*p<0.05, **p<0.01).
Chemoprotection against chemotherapy-induced bone marrow toxicity was determined in BSO treated and untreated animals given i.a. carboplatin, etoposide phosphate, and melphalan. NAC with or without STS was administered either about 30 minutes prior to chemotherapy or immediately after chemotherapy, and was administered either i.v. or by aortic infusion.

[6] = administered intravenously; cited from earlier work
[7] = tested on: patients with moderate renal insufficiency; details: approximately 1200 mg per day orally, day before and day of contrast agent; computed tomography; cited from earlier work
[8] = Table 7, no BSO, aortic infusion post chemo
[9] = Table 7, no BSO, i.v. 30 min prior
[10] = Table 7, no BSO, i.v. post chemo
[11] = Table 8, BSO pretreatment, aortic infusion post chemo

## CC(=O)N[C@@H](CS)C(=O)O [NAC, N-acetylcysteine]
[1]
  reduction of the cytotoxicity of each alkylator: 75–90%
[1]; on a μg/ml basis
  relative effectiveness among the thiol agents tested: most effective
[1]; read-out: Chemoprotective agent EC50, protection against carboplatin 200 μg/ml (about 90% lethal dose)
  EC50: 200 ± 15 µg/mL (≈ 1230 µM)
[1]; read-out: Chemoprotective agent EC50, protection against cisplatin 15 μg/ml (about 90% lethal dose)
  EC50: 151 ± 15 µg/mL (≈ 925 µM)
[1]; read-out: Chemoprotective agent EC50, protection against melphalan 20 μg/ml (about 90% lethal dose)
  EC50: 74 ± 18 µg/mL (≈ 453 µM)
[2]
  effect on BSO-enhanced taxol cytotoxicity: completely reversed
[3]
  chemoprotection against melphalan, cisplatin and carboplatin cytotoxicity: partially to completely chemoprotective
[4]
  effect on cisplatin- or carboplatin-induced caspase activity: no reduction in caspase enzymatic activity could be detected
[4]; melphalan 10 μg/ml, N-acetylcysteine 1000 μg/ml
  effect on melphalan-induced Caspase-2 activity: reduced
[5]; Table 7, no BSO, aortic infusion 30 min prior (1200 mg/kg), N=6
  White Cell Nadir: 69.7 ± 19.3% of baseline
[5]; [8]
  Granulocyte Nadir: 36.6 ± 17.0% of baseline
  Platelet Nadir: 26.8 ± 9.3% of baseline
[5]; Table 7, no BSO, aortic infusion post chemo, N=6
  White Cell Nadir: 25.9 ± 4.9% of baseline
[5]; [9]
  Granulocyte Nadir: 93.5 ± 28.1% of baseline
  Platelet Nadir: 53.3 ± 12.7% of baseline
[5]; Table 7, no BSO, i.v. 30 min prior, N=8
  White Cell Nadir: 51.4 ± 9.4% of baseline
[5]; [10]
  Granulocyte Nadir: 57.9 ± 8.8* percent of baseline
  Platelet Nadir: 36.8 ± 10.4% of baseline
[5]; Table 7, no BSO, i.v. post chemo, N=6
  White Cell Nadir: 46.0 ± 6.5* percent of baseline
[5]; Table 8, BSO pretreatment, aortic infusion 30 min prior
  Platelet Nadir: 23.1 ± 6.2% of baseline
[5]; Table 8, BSO pretreatment, aortic infusion 30 min prior, N=9
  White Cell Nadir: 20.1 ± 2.7% of baseline
[5]; [11]
  Granulocyte Nadir: 19.8 ± 14.7% of baseline
  Platelet Nadir: 11.7 ± 3.5% of baseline
[5]; Table 8, BSO pretreatment, aortic infusion post chemo, N=7
  White Cell Nadir: 13.9 ± 4.2% of baseline
[6]
  brain levels: < 5%
[7]
  effect on renal function after radiographic contrast agent: prevented the expected decline in renal function
